From PMC7044277 (Nature Communications, 2020)
Values joined by “and” are separate entries in the source; they are usually repeats but may differ in a detail not shown here. Equal entries are not always repeated.

Columns and labels:
[1] = tested on: serotonin receptor (subtype not given; reference agonist serotonin); assay: β-arrestin2 recruitment (Tango), agonist activity, source data Fig_S10l; format: cell-based, human; conditions: drug alone
[2] = target: T1, 5HT1F (Homo sapiens, UniProt P30939); assay: β-arrestin2 recruitment (Tango); format: cell-based; conditions: for β-arrestin2 recruitment response, agonist mode (single replicate values): Fig_S10j; for Fig_S10j dose-response, drug alone (agonist mode), β-arrestin2 recruitment: single replicate values
T1 construct: expressed in transfected cells; host or cells: HTLA cells expressing TEV-fused β-arrestin2
T1 sequence (P30939 1-366): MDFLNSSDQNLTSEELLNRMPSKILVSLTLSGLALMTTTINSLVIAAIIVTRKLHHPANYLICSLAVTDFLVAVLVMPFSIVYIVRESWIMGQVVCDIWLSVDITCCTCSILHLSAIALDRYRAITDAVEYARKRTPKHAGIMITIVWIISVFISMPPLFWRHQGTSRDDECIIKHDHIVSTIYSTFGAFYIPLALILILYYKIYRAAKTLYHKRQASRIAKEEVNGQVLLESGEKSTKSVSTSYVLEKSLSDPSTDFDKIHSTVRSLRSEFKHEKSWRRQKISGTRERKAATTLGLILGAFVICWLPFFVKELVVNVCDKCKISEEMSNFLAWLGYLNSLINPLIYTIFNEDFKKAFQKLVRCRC

[3] = target: 5HT1E (Homo sapiens, UniProt P28566); assay: β-arrestin2 recruitment (Tango); format: cell-based; conditions: Fig_S10i
5HT1E, sequence (P28566 whole entry): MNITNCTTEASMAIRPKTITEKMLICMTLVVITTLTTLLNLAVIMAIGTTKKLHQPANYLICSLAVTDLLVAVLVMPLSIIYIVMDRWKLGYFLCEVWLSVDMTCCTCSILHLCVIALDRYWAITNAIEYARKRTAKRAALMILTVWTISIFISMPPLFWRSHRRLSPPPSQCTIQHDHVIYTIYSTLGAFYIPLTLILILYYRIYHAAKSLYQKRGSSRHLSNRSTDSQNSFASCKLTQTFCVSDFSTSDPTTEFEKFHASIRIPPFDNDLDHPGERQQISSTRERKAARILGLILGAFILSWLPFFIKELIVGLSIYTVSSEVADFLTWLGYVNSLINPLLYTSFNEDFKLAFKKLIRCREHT

NCCc1c[nH]c2ccc(O)cc12 [serotonin]
response, Fig_S10l, replicate values ([1]; Log[Drug] -6.52): 89.1482 and 68.7936 and 58.4442 | response, Fig_S10l, replicate values ([1]; Log[Drug] -7): 66.8775 and 42.3868 and 35.3098 and 60.5263 and 52.6042 and 58.638 and 24.4765 and 22.6408 and 30.0813 | response, Fig_S10l, replicate values ([1]; Log[Drug] -7.52): 68.5906 and 51.7176 and 27.5973 and 17.0437 and 36.727 and -5.864 and 8.121 and 12.6341 and 15.0506 | response, Fig_S10l, replicate values ([1]; Log[Drug] -8): 24.3997 and 25.1743 and 11.0247 and 13.4188 and 3.861 and -8.27 and 5.486 and 9.516 and -0.3454 | response, Fig_S10l, replicate values ([1]; Log[Drug] -8.52): 28.2691 and 10.8991 and 0.6654 and 20.8515 and 4.218 and 3.753 and -2.601 and -10.3369 and 7.58 | response, Fig_S10l, replicate values ([1]; Log[Drug] -9): 8.291 and 7.398 and -4.407 and 28.3765 and 10.5666 and -13.7434 and -1.811 and 21.0925 and -2.254 | response, Fig_S10l, replicate values ([1]; Log[Drug] -9.52): 15.1454 and -8.903 and -7.678 and 11.6014 and -2.921 and -5.371 and 3.959 and 0.2537 and -8.706 | response, Fig_S10l, replicate values ([1]; Log[Drug] -10): 10.6015 and 17.2844 and 5.47 and 9.7774 and -6.372 and -8.832 and 0.1972 and 15.6666 and 6.603 | response, Fig_S10l, replicate values ([1]; Log[Drug] -10.52): 14.0658 and 3.099 and 4.084 and 6.9236 and -15.9908 and -3.571 and 14.7648 and -9.016 and -4.897 | response, Fig_S10l, replicate values ([1]; Log[Drug] -11): 11.925 and 9.507 and -4.609 and 40.988 and 1.279 and -23.0265 and -4.413 and 0.5655 and 2.993 | response, Fig_S10l, replicate values ([1]; Log[Drug] -11.52): 29.1466 and 5.5415 and 2.1791 and 13.0085 and 1.916 and 6.51 and 8.732 and 12.6601 | response, Fig_S10l, replicate values ([1]; Log[Drug] -12): 12.8871 and 8.151 and 29.2053 and 0.5174 and 13.376 and 13.9134 and 1.483 and -15.396 | β-arrestin2 recruitment response, agonist mode (single replicate values) ([2]; Log[Drug] -8): -3.452 and 0.8129 and -0.7741 and 0.7081 and -0.3166 | β-arrestin2 recruitment response, agonist mode (single replicate values) ([2]; Log[Drug] -8.52): 1.467 and -0.5936 and -0.6771 and -0.2347 and -1.695 and -2.24 and -2.059 and -1.682 and -0.1562 and 2.169 and 0.8707 and -1.81 | β-arrestin2 recruitment response, agonist mode (single replicate values) ([2]; Log[Drug] -9): -0.04426 and -0.9855 and -1.843 and -0.9137 and -1.161 and -1.413 and 1.14 and -2.447 and -1.948 and 1.946 and -0.5 and -0.1377 | β-arrestin2 recruitment response, agonist mode (single replicate values) ([2]; Log[Drug] -9.52): -2.101 and 2.6714 and -0.3744 and -0.1804 and 3.084 and -0.3427 and -1.809 and -0.4001 and 2.85 and -0.1339 and -0.298 | β-arrestin2 recruitment response, agonist mode (single replicate values) ([2]; Log[Drug] -10): -0.8375 and -0.7488 and -1.773 and 1.74 and -2.24 and -1.559 and -0.2741 and -1.133 and -0.7969 and 0.416 and -0.2133 and -1.1997 | β-arrestin2 recruitment response, agonist mode (single replicate values) ([2]; Log[Drug] -10.52): -2.914 and -1.511 and -1.366 and -1.154 and -2.628 and -0.5924 and -0.6184 and 5.324 and 0.8942 and 0.1831 and -0.2458 and -1.109 | β-arrestin2 recruitment response, agonist mode (single replicate values) ([2]; Log[Drug] -11): 4.606 and -2.13 and -1.057 and 0.00776 and -2.261 and -1.2903 and -0.3379 and -1.603 and 0.8607 and 0.8858 and 0.4773 and -0.3843 | β-arrestin2 recruitment response, agonist mode (single replicate values) ([2]; Log[Drug] -11.52): -1.978 and -2.064 and -1.769 and 3.255 and 2.53 and 1.832 and 0.0271 and 2.781 and -0.9914 and 1.71 and -0.0711 and -0.3911 | β-arrestin2 recruitment response, agonist mode (single replicate values) ([2]; Log[Drug] -12): -1.651 and 2.46 and -1.762 and -0.6984 and -0.5958 and -0.3302 and -0.006376 and -1.878 and -2.439 and 3.47 and -0.3101 and 0.7769 | Fig_S10j dose-response, drug alone (agonist mode), β-arrestin2 recruitment ([2]; Log[Drug] -5): 60.4606 and 65.0002 and 90.3142 and 57.9444 and 78.7631 and 57.8244 and 78.5234 and 70.8275 and 63.3071 | Fig_S10j dose-response, drug alone (agonist mode), β-arrestin2 recruitment ([2]; Log[Drug] -5.52): 68.8966 and 66.6667 and 38.5966 and 34.7166 and 67.3748 and 41.3918 and 50.0717 and 43.7042 and 56.4145 and 60.2307 and 56.8071 | Fig_S10j dose-response, drug alone (agonist mode), β-arrestin2 recruitment ([2]; Log[Drug] -6): 65.3117 and 41.5532 and 32.9512 and 18.8414 and 35.6041 and 33.2006 and 38.6085 and 22.7128 and 20.6455 and 38.0393 and 43.4213 and 39.1952 | Fig_S10j dose-response, drug alone (agonist mode), β-arrestin2 recruitment ([2]; Log[Drug] -6.52): 37.7864 and 17.7453 and 10.6352 and 8.195 and 10.8807 and 16.9203 and 24.2636 and 7.26 and 7.434 and 25.9629 and 24.0976 and 19.2564 | Fig_S10j dose-response, drug alone (agonist mode), β-arrestin2 recruitment ([2]; Log[Drug] -7): 0.08171 and 0.8827 and 2.8945 and 3.486 and 0.8409 and 1.495 and 3.165 and 2.979 and 1.237 and 11.4622 and 7.762 and 4.191 | Fig_S10j dose-response, drug alone (agonist mode), β-arrestin2 recruitment ([2]; Log[Drug] -7.52): -1.661 and -1.926 and 1.238 and 3.081 and -2.387 and 1.699 and 4.498 and -1.4313 and 5.445 and 5.244 and 1.302 and 0.4992 | β-arrestin2 recruitment response, agonist mode (single replicate values) ([3]; Log[Drug] -5.52): 108.092 and 78.7034 and 68.0996 and 111.634 and 84.2736 and 51.0795 and 58.1946 | β-arrestin2 recruitment response, agonist mode (single replicate values) ([3]; Log[Drug] -6): 49.7303 and 44.0521 and 69.0964 and 55.0788 and 40.5129 and 63.4469 and 42.3724 and 34.8106 | β-arrestin2 recruitment response, agonist mode (single replicate values) ([3]; Log[Drug] -6.52): 106.224 and 69.1939 and 36.3693 and 81.3314 and 34.6361 and 22.755 and 52.7781 and 32.1336 and 42.1707 | β-arrestin2 recruitment response, agonist mode (single replicate values) ([3]; Log[Drug] -7): 29.3778 and 17.2077 and 21.8054 and 52.9182 and 14.1436 and 22.9549 and 34.3028 and 15.3331 and 17.5442 | β-arrestin2 recruitment response, agonist mode (single replicate values) ([3]; Log[Drug] -7.52): 41.4851 and -6.092 and 11.8176 and 23.4775 and 20.4513 and 6.343 and -1.8765 and -0.1243 and 3.783 | β-arrestin2 recruitment response, agonist mode (single replicate values) ([3]; Log[Drug] -8): 21.7287 and -17.9678 and 1.664 and 16.3198 and 16.2023 and 1.767 and -8.704 and -1.0625 and 5.333 | β-arrestin2 recruitment response, agonist mode (single replicate values) ([3]; Log[Drug] -8.52): 26.6743 and -0.7908 and -7.94 and 18.4011 and -5.808 and -1.038 and -3.241 and -4.6991 and -0.4891 | β-arrestin2 recruitment response, agonist mode (single replicate values) ([3]; Log[Drug] -9): -13.5816 and -3.11 and -9.22 and 15.9426 and -4.472 and -7.47 and -3.2021 and 8.202 and 2.053 | β-arrestin2 recruitment response, agonist mode (single replicate values) ([3]; Log[Drug] -9.52): -5.0682 and -13.6215 and 3.951 and -3.374 and 10.856 and -15.4751 and -6.969 and 2.056 and -4.273 | β-arrestin2 recruitment response, agonist mode (single replicate values) ([3]; Log[Drug] -10): -0.8245 and 7.169 and 4.501 and 15.8236 and -1.758 and 5.793 and -9.018 and 1.66 | β-arrestin2 recruitment response, agonist mode (single replicate values) ([3]; Log[Drug] -10.52): -1.038 and -22.0751 and -13.8927 and 22.1779 and 3.45 and -2.9 and -5.64 and 8.736 | β-arrestin2 recruitment response, agonist mode (single replicate values) ([3]; Log[Drug] -11): -16.6513 and -2.431 and 20.3066 and 6.343 and -2.603 and 3.357
